# Reference: the supplement of paper PMC10307832
# Legend:
# Test in all cases: relative viability (nuclei count vs DMSO), 5 days (fraction); higher = more cells survive
# [1] = compound: O=C(Nc1cccc(C(F)(F)F)c1)Nc1cc(S(=O)(=O)NC2CC2)ccc1-c1ccsc1 [AGI-6780] + COc1cc2c(Oc3ccc(NC(=O)C4(C(=O)Nc5ccc(F)cc5)CC4)cc3F)ccnc2cc1OCCCN1CCOCC1 [Foretinib] (partner 0.25 µM)
# Method in brief: (§1)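 For relative viability, nuclei counts in treated wells were divided by those in vehicle wells. Lung cancer cell lines had been pin-tool dosed in 1536-well plates the day after seeding and cultured for 5 days, then fixed and stained in one step (final 0.05% Triton X-100, 1% formaldehyde, 1 ug/ml Hoechst) and imaged at 4×. Doses were one drug alone or a fixed anchor-drug dose plus five library-drug doses (not always all listed) in √10 steps, and values are duplicate-plate medians.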
# [2] = compound: O=C(Nc1cccc(C(F)(F)F)c1)Nc1cc(S(=O)(=O)NC2CC2)ccc1-c1ccsc1 [AGI-6780] + CS(=O)(=O)N1CCN(Cc2cc3nc(-c4cccc5[nH]ncc45)nc(N4CCOCC4)c3s2)CC1 [Pictilisib] (partner 1 µM)
# Method in brief: as §1
# [3] = compound: O=C(Nc1cccc(C(F)(F)F)c1)Nc1cc(S(=O)(=O)NC2CC2)ccc1-c1ccsc1 [AGI-6780] + NC(=O)Nc1cc(-c2cccc(F)c2)sc1C(=O)N[C@H]1CCCNC1 [AZD7762] (partner 0.2 µM)
# Method in brief: as §1
# [4] = compound: O=C(Nc1cccc(C(F)(F)F)c1)Nc1cc(S(=O)(=O)NC2CC2)ccc1-c1ccsc1 [AGI-6780] + O=C(CCCCCCC(=O)Nc1ccccc1)NO [Vorinostat] (partner 1 µM)
# Method in brief: as §1
Cell Line,relative viability ([1]; first compound 0.08 µM),relative viability ([1]; first compound 0.253 µM),relative viability ([1]; first compound 0.8 µM),relative viability ([1]; first compound 2.53 µM),relative viability ([1]; first compound 8 µM),relative viability ([2]; first compound 0.08 µM),relative viability ([2]; first compound 0.253 µM),relative viability ([2]; first compound 0.8 µM),relative viability ([2]; first compound 2.53 µM),relative viability ([2]; first compound 8 µM),relative viability ([3]; first compound 0.253 µM),relative viability ([3]; first compound 0.8 µM),relative viability ([3]; first compound 2.53 µM),relative viability ([3]; first compound 8 µM),relative viability ([4]; first compound 0.253 µM),relative viability ([4]; first compound 0.8 µM),relative viability ([4]; first compound 2.53 µM),relative viability ([4]; first compound 8 µM),relative viability ([3]; first compound 0.08 µM),relative viability ([4]; first compound 0.08 µM)
A-427,0.991,0.951,1.15,0.825,1.19,0.702,0.753,0.653,0.524,0.854,0.706,0.806,0.766,0.783,0.82,0.857,0.816,0.836,–,–
NCI-H441,1.03,1.16,1.06,0.754,0.844,0.562,0.483,0.565,0.288,0.381,1.35,1.43,1.2,1.39,0.711,0.853,0.547,0.676,1.33,0.748
NCI-H1993,0.682,0.838,0.851,0.621,0.771,0.0371,0.802,0.854,0.661,0.82,1.05,1.01,–,0.928,0.811,0.853,–,0.784,0.681,1.21
NCI-H1666,0.945,0.999,0.939,0.929,1.04,0.332,0.472,0.421,–,0.567,0.977,0.842,0.926,0.898,0.996,1.04,0.902,1.06,0.809,1.01
LCLC-97TM1,1.09,0.929,0.929,0.864,0.84,0.195,0.218,0.257,–,0.245,0.279,0.445,0.31,0.303,0.886,0.785,0.572,0.598,0.276,0.739
NCI-H1755,0.986,0.975,0.85,0.874,0.905,0.445,0.467,0.408,0.368,0.441,0.417,0.485,0.419,0.435,0.813,0.646,0.605,0.8,0.478,0.751
H3255,0.928,0.798,1.03,0.909,0.85,0.475,0.436,0.512,0.457,0.443,0.918,1.05,1.01,0.875,0.865,0.893,–,0.867,0.834,0.541
NCI-H2085,0.995,0.882,1.05,1.02,0.903,0.468,0.541,0.48,0.404,0.491,1,0.995,1.06,1,0.832,0.841,0.865,0.727,1.07,0.787
